Reference: patent US6579718B1, “Carbazolylvinyl dye protein stains” (Molecular Probes, Inc., priority 2000, dated 2003)

What was measured:
[1] = target: BSA (Bos taurus, UniProt P02769); test: Absorbance/emission spectra, fluorescence enhancement and quantum yield of dyes in solution +/- BSA (Example 21); assay type: physicochemical, bovine; conditions: for ABS λ max, BSA / EM λ max, BSA / FE (fluorescence enhancement, BSA) / Quantum Yield (BSA): 150 μg/mL BSA; for ABS λ max, BSA / EM λ max, BSA / ABS λ max, unbound / EM λ max, unbound: 10 mM Tris-HCl, pH 7.5, 0.05% SDS; for FE (fluorescence enhancement, BSA): 0.05% SDS, at emission maxima; for FE (fluorescence enhancement, BSA) / Quantum Yield (BSA): 470 nm excitation; for Quantum Yield (BSA): relative to fluorescein in 0.1 M NaOH; for ABS λ max, unbound / EM λ max, unbound: dye without BSA
Protocol: A particular dye of this invention is generally selected for a particular assay using one or more of the following criteria: sensitivity to poly(amino acids), insensitivity to the presence of nucleic acids, dynamic range, photostability, staining time, and spectral properties. […] Although the fluorescence enhancements and quantum yields are low to moderate in solution, some are significant relative to the long wavelength emission maxima (see Table 1 and Example 21).
Measurements are performed using −1 μM dye+/−150 μg/mL BSA in 10 mM Tris-HCl, pH 7.5,+0.05% SDS with a 2.0 mL sample volume. Fluorescence enhancements are calculated at emission maxima in a standard fluorometer using 470 nm excitation. Fluorescence quantum yields are determined relative to fluorescein (in 0.1 M NaOH), using 470 nm excitation.

[2] = system: broad-range protein molecular weight markers; test: Staining of broad-range molecular weight protein standards in SDS-polyacrylamide gels (Example 22, FIG. 2, 3); conditions: regardless of the buffer
Protocol: (§1) FIG. 2: Intensity profile comparison after staining broad-range protein molecular weight markers with SYPRO Orange dye in 7% acetic acid and phosohate-buffered saline. FIG. 2A.) Profile obtained with SYPRO Orange dye in 7% acetic acid. FIG. 2B.) Profile obtained with SYPRO Orange dye in 50 mM sodium phosphate, 150 mM sodium chloride, pH 7.0. Grey scale values of the fluorescence signals were inverted prior to obtaining the traces to facilitate evaluation of the peaks.
as §1, with “3:” for “2:”, “Compound 9” for “SYPRO Orange dye”, “phosphate-buffered” for “phosohate-buffered”, “3A.)” for “2A.)”, “3B.)” for “2B.)”
SDS-polyacrylamide gel electrophoresis is performed by standard methods utilizing 4% T, 2.6% C stacking gels, pH 6.8 and 15% T, 2.6% C separating gels, pH 8.8. % T is the total monomer concentration expressed in grams per 100 mL and % C is the percentage crosslinker. A staining solution of Compound 9 is prepared by diluting a stock solution that 5 is […] dye in DMSO in either 7.5% acetic acid or 50 mM Na2HPO4, 150 mM NaCl, pH 7.0 with vigorous mixing. Alternatively, a wide range of buffers are compatible with staining, including but not limited to formate, pH 4.0; citrate, pH 4.5; acetate, pH 5.0; MES, pH 6.0;
imidazole, pH 7.0; HEPES, pH 7.5; Tris acetate, pH 8.0; Tris-HCl, pH 8.5; Tris borate, 20 mM EDTA, pH 9.0; and bicarbonate, pH 10.0. Buffers should be prepared as 50-100 mM 10 solutions containing about 150 mM NaCl. Approximately 50-75 mL of staining solution is used for a typical mini-gel (5 cm×9 cm×1 mm). The gel is placed into the staining solution and the container is covered with aluminum foil to protect the dye from bright light. The gel is gently agitated for at least 30 minutes at room temperature using an orbital shaker (50:RPM). After staining, the gel is briefly dipped in water and visualized on a UV light box. […] As little as 1 ng of protein may be visualized when the fluorescent image is recorded by photography using a cellophane 490-nm long pass filter. […] In the latter buffer, protein bands are barely detectable above background fluorescence with these latter dyes.

[3] = system: amino acid homo- and hetero-polymers; test: Dye staining of amino acid homo- and hetero-polymers copolymerized into polyacrylamide gel discs; conditions: gel discs with 0.1% SDS; no asterisk = moderate
Excerpt: The specificity of protein detection of the present method can be compared to that of silver, CBB, SYPRO Orange dye and SYPRO Red dye staining for a variety of synthetic poly(amino acids) copolymerized into a polyacrylamide gel matrix. To do this, homopolymers of L-arginine, asparagine, histidine, lysine, aspartate, glutamate, alanine, glycine, isoleucine, leucine, methionine, serine, threonine, tryptophan, tyrosine and proline are copolymerized into 15% T, 2.6% C polyacrylamide gels at a concentration of […]. Except when indicated, 0.1% sodium dodecyl sulfate is included in the polyacrylamide solution as well. The amino acid heteropolymers, poly(glutamate, alanine, tyrosine), poly(glutamate, tyrosine), poly(lysine, tyrosine), poly(glutamate, lysine, tyrosine), and poly(arginine, tyrosine) are copolymerized into polyacrylamide gels in an identical manner as the homopolymers. Blank gels containing no polymer are prepared for reference. The co-polymerized gels are cut into discs using the large end of a 1000 microliter pipet tip (Sorenson Bioscience, Inc., West Salt. Lake City, Utah) and stained in Falcon 48 well flat bottom tissue culture plates (Becton-Dickinson, Franklin Lakes, N.J.) on an orbital shaker operating at 50 RPM. Gel discs are quantified on a Roche Lumi-Imager system (Indianapolis, Ind.) and classified into three groups based upon staining intensity (strong, moderate, or weak staining).

BSA, sequence (P02769 25-607): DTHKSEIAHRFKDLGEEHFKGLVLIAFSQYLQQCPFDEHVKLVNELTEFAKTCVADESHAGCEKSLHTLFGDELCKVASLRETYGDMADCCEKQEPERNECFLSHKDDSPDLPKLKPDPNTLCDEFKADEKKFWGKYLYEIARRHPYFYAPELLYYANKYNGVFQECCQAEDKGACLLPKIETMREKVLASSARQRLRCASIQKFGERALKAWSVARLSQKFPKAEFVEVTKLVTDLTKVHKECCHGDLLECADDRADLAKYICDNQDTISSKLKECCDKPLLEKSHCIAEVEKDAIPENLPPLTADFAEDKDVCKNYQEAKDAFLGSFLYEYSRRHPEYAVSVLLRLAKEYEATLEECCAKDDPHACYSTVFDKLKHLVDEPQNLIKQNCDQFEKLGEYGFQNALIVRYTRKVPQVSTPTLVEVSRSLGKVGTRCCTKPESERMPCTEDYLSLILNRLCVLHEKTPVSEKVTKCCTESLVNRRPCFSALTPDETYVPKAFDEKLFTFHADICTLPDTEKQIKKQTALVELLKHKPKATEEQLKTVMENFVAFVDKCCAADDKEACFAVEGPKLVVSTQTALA

Compound	ABS λ max, BSA [1] [nm]	EM λ max, BSA [1] [nm]	FE (fluorescence enhancement, BSA) [1] [fold]	Quantum Yield (BSA) [1]	ABS λ max, unbound [1] [nm]	EM λ max, unbound [1] [nm]	Appearance of stained proteins on UV light box [2]	Staining intensity, Arg homopolymer [3]	Staining intensity, Arg:Tyr heteropolymer [3]	Staining intensity, Glu:Lys:Tyr heteropolymer [3]	Staining intensity, His homopolymer [3]	Staining intensity, Ile homopolymer [3]	Staining intensity, Lys homopolymer [3]	Staining intensity, Lys:Tyr heteropolymer [3]
CCOCC(=O)CCC[n+]1ccc(/C=C/c2ccc3c(c2)c2ccccc2n3CC)c2ccccc21.[Br-] [Compound 10]	492	612	110	0.21	468	~700								
CCn1c2ccccc2c2cc(/C=C/c3cc[n+](CCCC(=O)O)c4ccccc34)ccc21.[Cl-] [Compound 11]	483	609	104	0.21	475	~700								
CCn1c2ccccc2c2cc(/C=C/c3ccc4ccccc4[n+]3CCCCS(=O)(=O)[O-])ccc21 [Compound 12]	453	587	34	0.10	441	679								
CCn1c2ccccc2c2cc(/C=C/c3cc[n+](CCCS(=O)(=O)[O-])cc3)ccc21 [Compound 13]		553	15	0.24		588	very bright yellow bands against an orange background							
CCn1c2ccccc2c2cc(/C=C/c3sc4ccccc4[n+]3CCCS(=O)(=O)[O-])ccc21 [Compound 14]	464	576	15	0.08	448	638								
O=S(=O)([O-])CCCC[n+]1ccc(/C=C/c2ccc3c(c2)c2ccccc2n3-c2ccccc2)c2ccccc21 [Compound 15]	469	591	52	0.25	468	670								
CCCCc1cc(/C=C/c2ccc3c(c2)c2ccccc2n3CC)c2ccccc2[n+]1-c1ccccc1.[Cl-] [Compound 16]	491	623	25	0.17	480	676								
CCn1c2ccccc2c2cc(/C=C/c3ccc4cc(OC)ccc4[n+]3C)ccc21 [Compound 17]		~610	2.5	0.04		679								
CCn1c2ccccc2c2cc(/C=C/C3=[N+](CCCCCC(=O)O)c4ccc(S(=O)(=O)[O-])cc4C3(C)C)ccc21 [Compound 18]	502	590	3.0	0.01	503	611								
CCOc1ccc(Nc2ccc(C(=C3C=CC(=[N+](CC)Cc4cccc(S(=O)(=O)[O-])c4)C=C3)c3ccc(N(CC)Cc4cccc(S(=O)(=O)[O-])c4)cc3)cc2)cc1.[Na+] [Coomassie Blue-R]								Arg*	Arg:Tyr*	Glu:Lys:Tyr*	His	Ile	Lys*	Lys:Tyr*
Silver										Tyr*		Ile	Lys*	Lys:Tyr*
